Measured values reported in ChEMBL document CHEMBL1129130, “Preparation, antimicrobial evaluation and mutagenicity of differently substituted [2-hydroxyaryl]-[1-methyl-5-nitro-1H-2-imidazolyl]methanols” (1996).
In brackets after ≈: the same amount, converted by molar mass.

Assays:
[1] = Minimum inhibitory concentration (MIC) of compound expressed as geometric mean of various bacterias.; format: functional
Salmonella typhimurium [2] = assay: Compound was tested for the mutagenicity activity in the Salmonella Typhimurium reverse mutation assay (+) - low levels of mutagenicity; format: functional, organism-based; settings: Salmonella enterica subsp. enterica serovar Typhimurium
[3] = Minimum inhibitory concentration (MIC) of compound expressed as geometric mean of various bacterias.*; format: functional
Salmonella typhimurium [4] = assay: Compound was tested for the mutagenicity activity in the Salmonella Typhimurium reverse mutation assay; ++/+++-indicates the levels of mutagenicity as the number of revertant colonies obtained increases 5/10 times; format: functional, organism-based; settings: Salmonella enterica subsp. enterica serovar Typhimurium
Salmonella typhimurium [5] = assay: Compound was tested for the mutagenicity activity in the Salmonella Typhimurium reverse mutation assay; +-indicates the levels of mutagenicity as the number of revertant colonies obtained increases 1.5-2 times; format: functional, organism-based; settings: Salmonella enterica subsp. enterica serovar Typhimurium
Salmonella typhimurium [6] = assay: Compound was tested for the mutagenicity activity in the Salmonella Typhimurium reverse mutation assay;(+) - low levels of mutagenicity; format: functional, organism-based; settings: Salmonella enterica subsp. enterica serovar Typhimurium
Salmonella typhimurium [7] = assay: Compound was tested for the mutagenicity activity in the Salmonella Typhimurium reverse mutation assay; (+) - low levels of mutagenicity; format: functional, organism-based; settings: Salmonella enterica subsp. enterica serovar Typhimurium

Row | Compound | MIC [3] [µM] | other results
1 | Cn1c([N+](=O)[O-])cnc1C(O)c1cc(C2CCCCC2)ccc1O (centres undefined) | – | MIC [1]: 8.82 µM (≈ 2.92 µg/mL); Mutagenicity (Salmonella typhimurium [2]): low levels of mutagenicity
2 | Cn1c([N+](=O)[O-])cnc1C(O)c1cc(C23C[C@H]4C[C@@H](C2)C[C@@H](C3)C4)ccc1O (some centres undefined) | 2.43 (≈ 0.932 µg/mL) | –
3 | Cn1c([N+](=O)[O-])cnc1C(O)c1cc(C(C)(C)C)ccc1O (centres undefined) [ABUNIDAZOLE] | 13.1 (≈ 4 µg/mL) | Mutagenicity (Salmonella typhimurium [4]): ++/+
4 | Cn1c([N+](=O)[O-])cnc1C(O)c1cccc(C23C[C@H]4C[C@@H](C2)C[C@@H](C3)C4)c1O (some centres undefined) | 4.46 (≈ 1.71 µg/mL) | Mutagenicity (Salmonella typhimurium [5]): Levels of mutagencity as the number of revertant colonies obtained increases 1.5-2 times
5 | COc1cc(C(O)c2ncc([N+](=O)[O-])n2C)c(O)c(C(C)(C)C)c1 (centres undefined) | 28.2 (≈ 9.46 µg/mL) | –
6 | Cn1c([N+](=O)[O-])cnc1C(O)c1cc(Cl)cc(C2C3C[C@H]4C[C@@H](C3)C[C@@H]2C4)c1O (some centres undefined) | 6.78 (≈ 2.83 µg/mL) | Mutagenicity (Salmonella typhimurium [6]): low levels of mutagenicity
7 | Cn1c([N+](=O)[O-])cnc1C(O)c1cc(F)cc(C2C3C[C@H]4C[C@@H](C3)C[C@@H]2C4)c1O (some centres undefined) | 3.97 (≈ 1.59 µg/mL) | Mutagenicity (Salmonella typhimurium [6]): low levels of mutagenicity
8 | Cc1ncc([N+](=O)[O-])n1CCO [METRONIDAZOLE] | 1.46 (≈ 0.25 µg/mL) | –
9 | COc1cc(C(O)c2ncc([N+](=O)[O-])n2C)c(O)c(C2C3C[C@H]4C[C@@H](C3)C[C@@H]2C4)c1 (some centres undefined) | 4.21 (≈ 1.74 µg/mL) | Mutagenicity (Salmonella typhimurium [7]): low levels of mutagenicity
10 | Cn1c([N+](=O)[O-])cnc1C(O)c1cc(C2C3C[C@H]4C[C@@H](C3)C[C@@H]2C4)ccc1O (some centres undefined) | 1.8 (≈ 0.69 µg/mL) | –
11 | Cn1c([N+](=O)[O-])cnc1C(O)c1cccc(C2CCCCC2)c1O (centres undefined) | 4.68 (≈ 1.55 µg/mL) | Mutagenicity (Salmonella typhimurium [5]): Levels of mutagencity as the number of revertant colonies obtained increases 1.5-2 times
12 | Cn1c([N+](=O)[O-])cnc1C(O)c1cccc(C2C3C[C@H]4C[C@@H](C3)C[C@@H]2C4)c1O (some centres undefined) | 3.84 (≈ 1.47 µg/mL) | –
